Experimental data published in US20200016159A1, “N3-CYCLICALLY SUBSTITUTED THIENOURACILS AND USE THEREOF” (Bayer Aktiengesellschaft, priority 2016, published 2020).

Target: T1, human adenosine A2b receptor (Homo sapiens, UniProt P29275)
T1 sequence (P29275 1-332): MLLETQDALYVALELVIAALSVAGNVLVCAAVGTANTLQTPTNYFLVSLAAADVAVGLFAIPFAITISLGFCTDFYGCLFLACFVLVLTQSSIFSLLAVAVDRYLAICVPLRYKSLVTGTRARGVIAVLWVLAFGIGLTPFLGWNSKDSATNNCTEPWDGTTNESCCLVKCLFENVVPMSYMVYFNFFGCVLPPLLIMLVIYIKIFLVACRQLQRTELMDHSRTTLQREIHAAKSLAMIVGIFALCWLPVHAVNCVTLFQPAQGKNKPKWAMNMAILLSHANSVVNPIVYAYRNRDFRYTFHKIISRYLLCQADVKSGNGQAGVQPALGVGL
Assay: Cellular in vitro reporter gene test for A2b receptor activity (antagonism of NECA)
Assay type: cell-based
Set-up: expressed in transfected cells; host or cells: CHO-K1 (Chinese hamster ovary) with CRE-luciferase reporter
Settings: recombinant CHO-K1 cells, CRE-luciferase reporter, co-incubation with EC50 concentration of NECA, 3 hours
Outline: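 CHO-K1 cells expressing recombinant human A2b receptor plus a CRE-driven firefly luciferase reporter. Compounds co-incubated with NECA at its same-day EC50 concentration; luminescence read 3 hours after NECA addition. IC50 values, sometimes means of several determinations rounded to two significant figures.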

IC50 [nM]	Compound
14	Cc1c(CN2CCNC2=NC#N)sc2c1c(=O)n(C1CC(C)(C)C1)c(=O)n2CCC(F)(F)F [Example 165, [1-{[3-(3,3-Dimethylcyclobutyl)-5-methyl-2,4-dioxo-1-(3,3,3-trifluoropropyl)-1,2,3,4-tetrahydrothieno[2,3-d]pyrimidin-6-yl]methyl}imidazolidin-2-ylidene]cyanamide]
430	Cc1c(CN2CCNC(=O)C2=O)sc2c1c(=O)n(C1COC1)c(=O)n2CCC(F)(F)F [Example 133, 6-[(2,3-Dioxopiperazin-1-yl)methyl]-5-methyl-3-(oxetan-3-yl)-1-(3,3,3-trifluoropropyl)thieno[2,3-d]pyrimidine-2,4(1H,3H)-dione]
4.9	Cc1c(Cn2nc[nH]c2=O)sc2c1c(=O)n([C@H]1C[C@@H]1C)c(=O)n2CC1CC(F)(F)C1 [Example 328, 1-[(3,3-Difluorocyclobutyl)methyl]-5-methyl-3-[(1S,2S)-2-methylcyclopropyl]-6-[(5-oxo-4,5-dihydro-1H-1,2,4-triazol-1-yl)methyl]thieno[2,3-d]pyrimidine-2,4(1H,3H)-dione]
7.5	CCCCn1c(=O)n(C2(C)CC2)c(=O)c2c(C)c(CN3CCNC3=O)sc21 [Example 54, 1-Butyl-5-methyl-3-(1-methylcyclopropyl)-6-[(2-oxoimidazolidin-1-yl)methyl]thieno[2,3-d]pyrimidine-2,4(1H,3H)-dione]
40	COCCn1c(=O)n(C2CCCC2)c(=O)c2c(C)c(CN3CCNC3=O)sc21 [Example 189, 3-Cyclopentyl-1-(2-methoxyethyl)-5-methyl-6-[(2-oxoimidazolidin-1-yl)methyl]thieno[2,3-d]pyrimidine-2,4(1H,3H)-dione]
8.5	Cc1c(Cn2nc[nH]c2=O)sc2c1c(=O)n([C@H]1C[C@@H]1C)c(=O)n2CC1CCC1 [Example 327, 1-(Cyclobutylmethyl)-5-methyl-3-[(1S,2S)-2-methylcyclopropyl]-6-[(5-oxo-4,5-dihydro-1H-1,2,4-triazol-1-yl)methyl]thieno[2,3-d]pyrimidine-2,4(1H,3H)-dione]
120	COCCn1c(=O)n(C2CC2C(F)(F)F)c(=O)c2c(C)c(CN3CCNC3=O)sc21 (single isomer, unassigned) [Example 295, 1-(2-Methoxyethyl)-5-methyl-6-[(2-oxoimidazolidin-1-yl)methyl]-3-[2-(trifluoromethyl)cyclopropyl]thieno[2,3-d]pyrimidine-2,4(1H,3H)-dione]
1.7	Cc1c(CN2CCNC2=NC#N)sc2c1c(=O)n(C1CCC1)c(=O)n2CCC(F)(F)F [Example 111, [1-{[3-Cyclobutyl-5-methyl-2,4-dioxo-1-(3,3,3-trifluoropropyl)-1,2,3,4-tetrahydrothieno[2,3-d]pyrimidin-6-yl]methyl}imidazolidin-2-ylidene]cyanamide]
640	CCC1(n2c(=O)c3c(C)c(Cn4nc[nH]c4=O)sc3n(CCOC)c2=O)CC1 [Example 109, 3-(1-Ethylcyclopropyl)-1-(2-methoxyethyl)-5-methyl-6-[(5-oxo-4,5-dihydro-H-1,2,4-triazol-1-yl)methyl]thieno[2,3-d]pyrimidine-2,4(1H,3H)-dione]
6.7	COCCn1c(=O)n(C2CC3(CCC3)C2)c(=O)c2c(C)c(CN3CCNC3=NC(=O)OC)sc21 [Example 181, Methyl [1-{[1-(2-methoxyethyl)-5-methyl-2,4-dioxo-3-(spiro[3.3]hept-2-yl)-1,2,3,4-tetrahydrothieno[2,3-d]pyrimidin-6-yl]methyl}imidazolidin-2-ylidene]carbamate]
83	COCCn1c(=O)n(C2CC(C)(C)C2)c(=O)c2c(C)c(Cn3nc[nH]c3=O)sc21 [Example 173, 3-(3,3-Dimethylcyclobutyl)-1-(2-methoxyethyl)-5-methyl-6-[(5-oxo-4,5-dihydro-1H-1,2,4-triazol-1-yl)methyl]thieno[2,3-d]pyrimidine-2,4(1H,3H)-dione]
560	CCOCCn1c(=O)n(C2(C)CC2)c(=O)c2c(C)c(Cn3nc[nH]c3=O)sc21 [Example 78, 1-(2-Ethoxyethyl)-5-methyl-3-(1-methylcyclopropyl)-6-[(5-oxo-4,5-dihydro-1H-1,2,4-triazol-1-yl)methyl]thieno[2,3-d]pyrimidine-2,4(1H,3H)-dione]
7	Cc1c(Cn2cc[nH]c2=O)sc2c1c(=O)n(C1CC1)c(=O)n2CC1CC(F)(F)C1 [Example 205, 3-Cyclopropyl-1-[(3,3-difluorocyclobutyl)methyl]-5-methyl-6-[(2-oxo-2,3-dihydro-1H-imidazol-1-yl)methyl]thieno[2,3-d]pyrimidine-2,4(1H,3H)-dione]
1.4	Cc1c(CN2CCNC2=O)sc2c1c(=O)n(C1CC1C)c(=O)n2CC1CC(F)(F)C1 (racemic) [Example 252, 1-[(3,3-Difluorocyclobutyl)methyl]-5-methyl-3-(2-methylcyclopropyl)-6-[(2-oxoimidazolidin-1-yl)methyl]thieno[2,3-d]pyrimidine-2,4(1H,3H)-dione]
430	CCOCCn1c(=O)n(C2CC2)c(=O)c2c(C)c(Cn3nc[nH]c3=O)sc21 [Example 32, 3-Cyclopropyl-1-(2-ethoxyethyl)-5-methyl-6-[(5-oxo-4,5-dihydro-1H-1,2,4-triazol-1-yl)methyl]thieno[2,3-d]pyrimidine-2,4(1H,3H)-dione]
3.6	Cc1c(CN2CCNC2=O)sc2c1c(=O)n(C1(C)CC1)c(=O)n2CCC(F)(F)F [Example 56, 5-Methyl-3-(1-methylcyclopropyl)-6-[(2-oxoimidazolidin-1-yl)methyl]-1-(3,3,3-trifluoropropyl)thieno[2,3-d]pyrimidine-2,4(1H,3H)-dione]
910	Cc1c(Cn2nc[nH]c2=O)sc2c1c(=O)n(C1CC1)c(=O)n2CC1CCCC1(F)F (single isomer, unassigned) [Example 207, 3-Cyclopropyl-1-[(2,2-difluorocyclopentyl)methyl]-5-methyl-6-[(5-oxo-4,5-dihydro-1H-1,2,4-triazol-1-yl)methyl]thieno[2,3-d]pyrimidine-2,4(1H,3H)-dione]
86	Cc1c(Cn2[nH]ccc2=O)sc2c1c(=O)n(C1CC1C)c(=O)n2CCOC(F)(F)F (single isomer, unassigned) [Example 274, 5-Methyl-3-(2-methylcyclopropyl)-6-[(5-oxo-2,5-dihydro-1H-pyrazol-1-yl)methyl]-1-[2-(trifluoromethoxy)ethyl]thieno[2,3-d]pyrimidine-2,4(1H,3H)-dione]
1200	COCCn1c(=O)n([C@H]2C[C@@H](OC)C2)c(=O)c2c(C)c(Cn3nc[nH]c3=O)sc21 [Example 163, 3-(cis-3-Methoxycyclobutyl)-1-(2-methoxyethyl)-5-methyl-6-[(5-oxo-4,5-dihydro-1H-1,2,4-triazol-1-yl)methyl]thieno[2,3-d]pyrimidine-2,4(1H,3H)-dione]
340	COCCn1c(=O)n([C@H]2C[C@H](OC)C2)c(=O)c2c(C)c(CN3CCNC(=O)C3=O)sc21 [Example 152, 6-[(2,3-Dioxopiperazin-1-yl)methyl]-3-(trans-3-methoxycyclobutyl)-1-(2-methoxyethyl)-5-methylthieno[2,3-d]pyrimidine-2,4(1H,3H)-dione]
14	COCCn1c(=O)n(C2CCC2)c(=O)c2c(C)c(CN3CCNC(=O)C3=O)sc21 [Example 118, 3-Cyclobutyl-6-[(2,3-dioxopiperazin-1-yl)methyl]-1-(2-methoxyethyl)-5-methylthieno[2,3-d]pyrimidine-2,4(1H,3H)-dione]
4	COC(=O)N=C1NCCN1Cc1sc2c(c1C)c(=O)n(C1CC3(CCC3)C1)c(=O)n2CCC(F)(F)F [Example 176, Methyl [1-{[5-methyl-2,4-dioxo-3-(spiro[3.3]hept-2-yl)-1-(3,3,3-trifluoropropyl)-1,2,3,4-tetrahydrothieno[2,3-d]pyrimidin-6-yl]methyl}imidazolidin-2-ylidene]carbamate]
1	Cc1c(Cn2cc[nH]c2=O)sc2c1c(=O)n(C1CC1C)c(=O)n2CCOC(F)(F)F (single isomer, unassigned) [Example 272, 5-Methyl-3-(2-methylcyclopropyl)-6-[(2-oxo-2,3-dihydro-1H-imidazol-1-yl)methyl]-1-[2-(trifluoromethoxy)ethyl]thieno[2,3-d]pyrimidine-2,4(1H,3H)-dione]
14	Cc1c(Cn2nc[nH]c2=O)sc2c1c(=O)n([C@H]1C[C@@H]1C)c(=O)n2CCCF [Example 322, 1-(3-Fluoropropyl)-5-methyl-3-[(1S,2S)-2-methylcyclopropyl]-6-[(5-oxo-4,5-dihydro-H-1,2,4-triazol-1-yl)methyl]thieno[2,3-d]pyrimidine-2,4(1H,3H)-dione]
3.2	Cc1c(CN2CCNC2=O)sc2c1c(=O)n(C1CC(F)(F)C1)c(=O)n2CCC(F)(F)F [Example 120, 3-(3,3-Difluorocyclobutyl)-5-methyl-6-[(2-oxoimidazolidin-1-yl)methyl]-1-(3,3,3-trifluoropropyl)thieno[2,3-d]pyrimidine-2,4(1H,3H)-dione]
110	Cc1c(Cn2nc[nH]c2=O)sc2c1c(=O)n(C1CC1)c(=O)n2CC1CCCO1 (racemic) [Example 49, 3-Cyclopropyl-5-methyl-6-[(5-oxo-4,5-dihydro-1H-1,2,4-triazol-1-yl)methyl]-1-(tetrahydrofuran-2-ylmethyl)thieno[2,3-d]pyrimidine-2,4(1H,3H)-dione]
